Measured values published in patent US5049550A, “Diadenosine 5', 5'"-p^1, p^4,-tetraphosphate analogs as antithrombotic agents” (Worcester Foundation for Experimental Biology, priority 1988, dated 1991).
“Also recorded” adds a separate entry of the source.

How the values were obtained:
[1] = system: aggregation of platelets induced by ADP; assay: ADP-induced aggregation of platelets recovered from AP4 A-infused rabbits; type: in vivo, rabbit
Method: (§1) After preliminary trials, a standard AP4 A infusion protocol was established as follows: A dose of AP4 A at 50 mg/kg was reconstituted in 10 ml of normal saline and infused by pump at a uniform rate over two hours. Control rabbits received 10 ml of saline alone. The intracarotid cannula was inserted, and the re-establishment of blood flow timed at 15 minutes into the infusion. Upon the completion of infusion at 2 hours, the intracarotid tubing was removed, and its contents flushed out into a petri dish. The presence of a clot or of liquid blood contents was noted.
(§2) Rabbit carotid arterial blood was collected in 3.8% sodium citrate (9 volumes blood to 1 volume citrate). Platelet rich plasma (PRP) and platelet poor plasma (PPP) were prepared by centrifugation at 150 g and 1,000 g for 10 minutes respectively. Aggregation studies were performed in a Chrono-Log (Havertown, Pa.) aggregometer with ADP or collagen as aggregating agents. ADP (Sigma Chemical Co.) was used in a final concentration of 2×10^-5 M. Calf skin collagen (Sigma Chemical Co.) was used in a final concentration of 200 ug/ml.

[2] = system: ADP induced platelet aggregation; conditions: in vitro; even when aggregation has progressed to 60% completion; cited from earlier work
[3] = plasma; cited from earlier work
[4] = system: Intracarotid Artery Thrombosis; assay: Intracarotid cannula arterial thrombosis model in rabbits; type: in vivo, rabbit
Method: Gurewich, V. and Lipinski, B. Thrombosis Research, 9:101 (1976); Louie, S. and Gurewich, V. Thrombosis Research, 30:323-335 (1983).
(§3) Male, New Zealand white rabbits, weighing 2-2.5 kg., were anesthetized with ketamine hydrochloride (100 mg/kg intramuscularly). AP4 A (Boehringer (100 Mannheim Biochemicals, Indianapolis, Ind.), or saline control was infused via a marginal ear vein. A segment of the left common carotid artery was isolated by vascular clamps. A 1 cm. length of polyethylene tubing (PE-90, Clay Adams, Parsippany, N.Y.) was inserted, secured by silk ligatures, and the blood flow re-established by removing the clamps. Blood was sampled from the right carotid artery for assays of AP4 A and ATP, and for platelet aggregation studies.
as §1
Twenty-five rabbits each were assigned to the experimental group that received AP4 A (50 mg/kg), and the control group that received normal saline alone. The incidence of clot formation in the intracarotid cannula in the two groups was compared by the Chi-Square test.
Initially, twelve rabbits received a constant infusion of E10 over a 2 hour period at a dosage of 100 mg in 10 ml. These intravenous infusions were performed as described above for AP4 A.
In addition, 30 mg of E10 in 3 ml saline was administered as a single injection over a one minute time span at the beginning of the cannulation period.

[5] = system: rabbit platelet aggregation by collagen; assay: Collagen-induced aggregation of rabbit platelets; type: cell-based
Method: as §2
The effect of AP4 A on rabbit platelet aggregation by ADP and collagen was tested. […] The anti-aggregatory effect of AP4 A was detected at a concentration of 2×10^-4 M (tenfold that of ADP) and increased in a dose-response pattern with increasing concentrations (FIG. 1).

[6] = Decay of AP4 A / ATP in incubated rabbit blood collected at the end of AP4 A infusion (ex vivo); type: in vitro ADME; conditions: for level of AP4 A as compared to baseline: 37° C.
Method: (§4) Blood samples were collected from the carotid artery through a catheter before and after (0, 10, 20, 40, and 60 minutes) infusion of AP4 A. Blood was anticoagulated by mixing with 0.15 volume of acid-citrate-dextrose solution. An aliquot of blood collected at the end of AP4 A infusion (to sample) was incubated at 37° C. and sampled at 10, 20, 40, and 60 minutes to evaluate the in vitro decay of AP4 A. Blood samples of […] 3% perchloric acid and kept at 0° C. for 30 minutes with intermittent vortexing. The acid soluble fraction was recovered by centrifugation at 1000 g for 10 minutes and neutralized by 5M K2 CO3. It was then kept at -80° C. until assay of the nucleotides. The AP4 A assay was performed by coupling the phosphodiesterase and luciferase reactions in a luminometer (Model 6100 Picolite, Packard, Downers Grove, Ill.). The detailed method of AP4 A and ATP assays has been reported elsewhere (Kim, B. K., Chao, F. C., Leavitt, R., Fauci, A. S., Meyers, K. M. and Zamecnik, P. C. Blood, 66:735-737, 1985).
(§5) The disappearance of infused AP4 A in the circulation and in incubated blood was studied in 2 rabbits. Mean values of hemoglobin, hematocrit and platelet count were 10.1 g/dl, 30.8% and 362,000/ul respectively. The blood content of AP4 A in the rabbits was 51 nmol/1 blood prior to infusion. […] Kim, B. K. et al., Blood, 66:735-737 (1985); Flodgaard, H., Zamecnik, P. C. Meyers, K. and Klenow, H., Thrombosis Research, 37:345-351 (1986). […] A very rapid disappearance of infused AP4 A was observed, with complete clearance within 10 minutes after infusion. When blood samples obtained at the end of AP4 A infusion were incubated at 37° C., only 15-fold and 4-fold levels of AP4 A, as compared to baseline could be detected after 10 minutes and 20 minutes respectively.

[7] = Assay of blood AP4 A and ATP before and after AP4 A infusion in rabbits (in vivo); set-up: species or system rabbit
Method: as §3, §1, §4, §5

[8] = AP4 A 50 mg/kg infused over 2 hours, 25 rabbits
[9] = in vivo, before infusion of AP4 A

## Nc1ncnc2c1ncn2[C@@H]1O[C@H](COP(=O)(O)OP(=O)(O)OP(=O)(O)OP(=O)(O)OC[C@H]2O[C@@H](n3cnc4c(N)ncnc43)[C@H](O)[C@@H]2O)[C@@H](O)[C@H]1O [AP4 A, diadenosine 5',5'"-p^1,p^4 -tetraphosphate]
[1]; 50 mg per kg over 2 hours, ADP 2×10^-5 M (FIG. 4)
  aggregation of platelets induced by ADP after AP4 A infusion: diminished response to ADP-induced aggregation; also recorded: markedly blunted
[1]; rabbit, in vivo
  inhibition of ADP-induced platelet aggregation on administration to a mammal: markedly inhibit ADP-induced platelet aggregation
[2]
  effect on ADP induced platelet aggregation: competitively inhibits ADP induced platelet aggregation, causing an immediate dispersion of aggregated platelets
[3]
  degradation products: degraded to AMP and ATP
[4]; [8]
  % CLOTS (incidence of thrombosis): 56%
  Clot Absent (rabbits): 11
  Clot Present (rabbits): 14
[4]; AP4 A 50 mg/kg over 2 hours
  difference in dimension and weight of clots versus controls: no significant difference
[5]; added after aggregation, collagen 200 ug/ml (FIG. 2)
  effect on preformed aggregates caused by collagen: no effect
[5]; added prior to induction, collagen 200 ug/ml (FIG. 3B)
  effect on collagen-induced aggregation: inhibiting slightly
[5]; same dose that almost completely inhibits ADP-induced aggregation
  effect on collagen-induced platelet aggregation: little or no effect
[6]; ex vivo, after 10 minutes
  level of AP4 A as compared to baseline: 15 fold
[6]; ex vivo, after 20 minutes
  level of AP4 A as compared to baseline: 4 fold
[6]; ex vivo, 10 min at 37° C.
  ATP, umol/l blood: 570.1 umol/l blood
[6]; ex vivo, 20 min at 37° C.
  ATP, umol/l blood: 559.3 umol/l blood
[6]; ex vivo, 40 min at 37° C.
  ATP, umol/l blood: 551.5 umol/l blood
[6]; ex vivo, 60 min at 37° C.
  ATP, umol/l blood: 572.0 umol/l blood
[6]; rabbit blood
  ex vivo decay compared to in vivo clearance: significantly longer; also recorded: slightly longer
[6]; rabbit, blood, iv, 50 mg/kg, ex vivo, 10 min at 37° C., read-out: AP4 A, umol/l blood
  concentration at 10 min: 0.799 µmol/L
[6]; rabbit, blood, iv, 50 mg/kg, ex vivo, 20 min at 37° C., read-out: AP4 A, umol/l blood
  concentration at 20 min: 0.21 µmol/L
[6]; rabbit, blood, iv, 50 mg/kg, ex vivo, 40 min at 37° C., read-out: AP4 A, umol/l blood
  concentration at 40 min: 0.041 µmol/L
[6]; rabbit, blood, iv, 50 mg/kg, ex vivo, 60 min at 37° C., read-out: AP4 A, umol/l blood
  concentration at 1 h: 0.037 µmol/L
[7]; an initial increment and a late increment
  level of ATP after AP4 A infusion: bimodal increments
[7]; end of infusion
  increase of blood AP4 A at the end of infusion: 125 fold of baseline
[7]; end of infusion, 50 mg/kg
  concentration: 6400 nM
[7]; in vivo and ex vivo
  half-life in rabbit blood: short half-life
[7]; in vivo, 0 min after infusion of AP4 A (50 mg/kg over 2 h)
  ATP, umol/l blood: 579.0 umol/l blood
[7]; in vivo, 10 min after infusion of AP4 A (50 mg/kg over 2 h)
  ATP, umol/l blood: 573.5 umol/l blood
[7]; in vivo, 20 min after infusion of AP4 A (50 mg/kg over 2 h)
  ATP, umol/l blood: 564.0 umol/l blood
[7]; in vivo, 40 min after infusion of AP4 A (50 mg/kg over 2 h)
  ATP, umol/l blood: 562.0 umol/l blood
[7]; in vivo, 60 min after infusion of AP4 A (50 mg/kg over 2 h)
  ATP, umol/l blood: 629.5 umol/l blood
[7]; [9]
  AP4 A, umol/l blood: 0.051 umol/l blood
  ATP, umol/l blood: 522.9 umol/l blood
[7]; rabbit, blood, iv, in vivo, 0 min after infusion (50 mg/kg over 2 h), read-out: AP4 A, umol/l blood
  concentration at 0 h: 6.41 µmol/L
[7]; rabbit, blood, iv, in vivo, 10 min after infusion (50 mg/kg over 2 h), read-out: AP4 A, umol/l blood
  concentration at 10 min: 0.043 µmol/L
[7]; rabbit, blood, iv, in vivo, 20 min after infusion (50 mg/kg over 2 h), read-out: AP4 A, umol/l blood
  concentration at 20 min: 0.045 µmol/L
[7]; rabbit, blood, iv, in vivo, 40 min after infusion (50 mg/kg over 2 h), read-out: AP4 A, umol/l blood
  concentration at 40 min: 0.05 µmol/L
[7]; rabbit, blood, iv, in vivo, 60 min after infusion (50 mg/kg over 2 h), read-out: AP4 A, umol/l blood
  concentration at 1 h: 0.042 µmol/L
[7]; rabbits, after end of infusion
  time to complete clearance after infusion: ≤ 10 min
[7]; rabbits, prior to infusion
  blood content of AP4 A prior to infusion: 51 nmol/1 blood
[7]; rabbits, prior to infusion, versus man
  blood content of AP4 A: fold lower than the level observed in man: 7.3 fold
